pIC50: −log10 of the molar value.
Molecular target: T1, myeloperoxidase (MPO) (Homo sapiens, UniProt P05164)
T1 sequence (P05164 49-745): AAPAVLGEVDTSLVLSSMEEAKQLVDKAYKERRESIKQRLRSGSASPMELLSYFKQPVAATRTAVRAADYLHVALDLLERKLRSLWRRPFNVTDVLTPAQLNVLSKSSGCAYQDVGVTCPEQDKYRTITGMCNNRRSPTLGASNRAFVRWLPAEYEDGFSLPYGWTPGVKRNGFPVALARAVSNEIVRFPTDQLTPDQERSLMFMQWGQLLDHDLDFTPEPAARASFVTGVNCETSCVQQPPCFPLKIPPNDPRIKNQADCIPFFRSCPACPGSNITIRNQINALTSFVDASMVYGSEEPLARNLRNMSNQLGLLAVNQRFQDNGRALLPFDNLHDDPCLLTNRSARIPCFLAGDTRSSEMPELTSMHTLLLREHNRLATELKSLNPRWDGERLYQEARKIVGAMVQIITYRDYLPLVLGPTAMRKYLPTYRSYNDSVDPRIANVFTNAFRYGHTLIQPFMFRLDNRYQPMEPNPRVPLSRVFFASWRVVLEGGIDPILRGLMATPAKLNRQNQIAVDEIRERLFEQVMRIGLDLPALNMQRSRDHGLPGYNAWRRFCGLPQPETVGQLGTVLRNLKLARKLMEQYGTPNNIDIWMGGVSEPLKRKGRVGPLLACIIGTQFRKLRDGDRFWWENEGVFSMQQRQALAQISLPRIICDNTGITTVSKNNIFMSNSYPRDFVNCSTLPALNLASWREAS
Experiment: MPO peroxidation assay (Amplex Red assay)
Format: biochemical
Conditions: not given
In short: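 MPO (200 pM) with 40 nM H2O2 was preincubated 10 min at room temperature with inhibitor in 100 mM KPi pH 7.4. A mix of Amplex Red (200 μM) and H2O2 (10 mM) was then added and resorufin fluorescence read kinetically for 15 min. Slopes over 180–540 s gave % inhibition and IC50 via a four-parameter Hill fit.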

Row | pIC50 | SMILES
1 | 7.00 to 9.00 | Nc1cc(OCc2ccccc2F)c2nn[nH]c2n1 [Example 55, 7-(2-Fluorobenzyloxy)-3H-[1,2,3]triazolo[4,5-b]pyridin-5-amine]

Same assay, conditions: MPO peroxidation, potency range class; read-out: Amplex Red IC50

Row | SMILES | pIC50
2 | Nc1cc(OCc2cc(C(=O)Nc3nnc(C(F)(F)F)s3)ccc2F)c2nn[nH]c2n1 [Example 155, 3-((5-amino-3H-[1,2,3]triazolo[4,5-b]pyridin-7-yloxy)methyl)-4-fluoro-N-(5-(trifluoromethyl)-1,3,4-thiadiazol-2-yl)benzamide] | 6.00 to 7.00
3 | Cc1ccc(-c2cccc(F)c2)cc1COc1cc(N)nc2[nH]nnc12 [Example 65, 7-((3′-Fluoro-4-methylbiphenyl-3-yl)methoxy)-3H-[1,2,3]triazolo[4,5-b]pyridin-5-amine] | 7.00 to 9.00
4 | Nc1cc(OCc2cc(C(=O)NCC(F)(F)F)ccc2Cl)c2nn[nH]c2n1 [Example 190, 3-((5-amino-3H-[1,2,3]triazolo [4,5-b]pyridin-7-yloxy)methyl)-4-chloro-N-(2,2,2-trifluoroethyl) benzamide] | 7.00 to 9.00
5 | CC(O)CNC(=O)c1ccc(Cl)c(COc2cc(N)nc3[nH]nnc23)c1 (stereo not shown) [Example 191, 3-((5-amino-3H-[1,2,3]triazolo [4,5-b]pyridin-7-yloxy)methyl)-4-chloro-N-(2-hydroxypropyl) benzamide] | 7.00 to 9.00
6 | NC(=O)c1cccc(COc2cc(N)nc3[nH]nnc23)c1 [Example 56, 3-((5-Amino-3H-[1,2,3]triazolo[4,5-b]pyridin-7-yloxy)methyl)benzamide] | 6.00 to 7.00
7 | Cc1c(COc2cc(N)nc3[nH]nnc23)cccc1-n1cncn1 [Example 86, 7-(2-Methyl-3-(1H-1,2,4-triazol-1-yl)benzyloxy)-3H-[1,2,3]triazolo[4,5-b]pyridin-5-amine] | 7.00 to 9.00
8 | Nc1cc(OCc2cc(C(=O)N3CCC[C@@H]3CO)ccc2Cl)c2nn[nH]c2n1 [Example 178, (R)-(3-((5-amino-3H-[1,2,3]triazolo[4,5-b]pyridin-7-yloxy)methyl)-4-chlorophenyl)(2-(hydroxymethyl)pyrrolidin-1-yl)methanone] | 6.00 to 7.00
9 | Nc1cc(OCc2cc(C(=O)N3CCNC(=O)C3)ccc2F)c2nn[nH]c2n1 [Example 169, 4-(3-((5-amino-3H-[1,2,3]triazolo [4,5-b]pyridin-7-yloxy)methyl)-4-fluorobenzoyl)piperazin-2-one] | 6.00 to 7.00
10 | CCC(F)(F)C(Oc1cc(N)nc2[nH]nnc12)c1ccccc1 (single isomer, unassigned) [Example 137, 7-(2,2-Difluoro-1-phenylbutoxy)-3H-[1,2,3]triazolo[4,5-b]pyridin-5-amine] | 7.00 to 9.00
11 | CC(NC(=O)c1ccc(COc2cc(N)nc3[nH]nnc23)c(Cl)c1)c1ccccc1 (stereo not shown) [Example 201, 4-((5-amino-3H-[1,2,3]triazolo[4,5-b]pyridin-7-yloxy)methyl)-3-chloro-N-(1-phenylethyl)benzamide] | 7.00 to 9.00
12 | Nc1cc(OCc2cc(C(=O)NC3CC3)ccc2Cl)c2nn[nH]c2n1 [Example 188, 3-((5-amino-3H-[1,2,3]triazolo [4,5-b]pyridin-7-yloxy)methyl)-4-chloro-N-cyclopropylbenzamide] | 7.00 to 9.00
13 | COc1c(Br)cccc1COc1cc(N)nc2[nH]nnc12 [Example 59, 7-(3-Bromo-2-methoxybenzyloxy)-3H-[1,2,3]triazolo[4,5-b]pyridin-5-amine] | 7.00 to 9.00
14 | Cc1c(Br)cccc1COc1cc(N)nc2[nH]nnc12 [Example 60, 7-(3-Bromo-2-methylbenzyloxy)-3H-[1,2,3]triazolo[4,5-b]pyridin-5-amine] | 7.00 to 9.00
15 | Nc1cc(OCc2ccc(-c3ccccc3F)cc2)c2nn[nH]c2n1 [Example 114, 7-((2′-Fluorobiphenyl-4-yl)methoxy)-3H-[1,2,3]triazolo[4,5-b]pyridin-5-amine] | 6.00 to 7.00
16 | COc1ccc(Br)cc1COc1cc(N)nc2[nH]nnc12 [Example 58, 7-(5-Bromo-2-methoxybenzyloxy)-3H-[1,2,3]triazolo[4,5-b]pyridin-5-amine] | 7.00 to 9.00
17 | Nc1cc(OCc2cc(C(=O)Nc3cccc(Cl)c3)ccc2F)c2nn[nH]c2n1 [Example 49, 3-((5-Amino-3H-[1,2,3]triazolo[4,5-b]pyridin-7-yloxy)methyl)-N-(3-chlorophenyl)-4-fluorobenzamide] | 7.00 to 9.00
18 | Nc1cc(OCc2cc(C(=O)NCC3CC3)ccc2F)c2nn[nH]c2n1 [Example 162, 3-((5-amino-3H-[1,2,3]triazolo[4,5-b]pyridin-7-yloxy)methyl)-N-(cyclopropylmethyl)-4-fluorobenzamide] | 7.00 to 9.00
19 | COc1ccc(C(F)(F)F)cc1COc1cc(N)nc2[nH]nnc12 [Example 30, 7-(2-Methoxy-5-(trifluoromethyl)benzyloxy)-3H-[1,2,3]triazolo[4,5-b]pyridin-5-amine] | 7.00 to 9.00

Second part, the molecule after the results:

Row | pIC50 | SMILES
20 | 7.00 to 9.00 | N#Cc1cc(-c2cnc(N3CCNCC3)nc2)ccc1COc1cc(N)nc2[nH]nnc12 [Example 329, 2-(((5-amino-3H-[1,2,3]triazolo[4,5-b]pyridin-7-yl)oxy)methyl)-5-(2-(piperazin-1-yl)pyrimidin-5-yl)benzonitrile]
21 | 7.00 to 9.00 | COc1ccc(-c2ccc(COc3cc(N)nc4[nH]nnc34)c(OC(F)(F)F)c2)cn1 [Example 290, 7-((4-(6-methoxypyridin-3-yl)-2-(trifluoromethoxy)benzyl)oxy)-3H-[1,2,3] triazolo[4,5-b]pyridin-5-amine]
22 | 7.00 to 9.00 | N#Cc1cc(Br)ccc1COc1cc(N)nc2[nH]nnc12 [Example 245, 2-(((5-Amino-3H-[1,2,3]triazolo[4,5-b]pyridin-7-yl)oxy)methyl)-5-bromobenzonitrile]
23 | 7.00 to 9.00 | Nc1cc(OCc2ccc(-c3ccc(CO)nc3)cc2OC(F)(F)F)c2nn[nH]c2n1 [Example 296, (5-(4-(((5-amino-3H-[1,2,3]triazolo[4,5-b]pyridin-7-yl)oxy)methyl)-3-(trifluoromethoxy)phenyl)pyridin-2-yl)methanol]
24 | 7.00 to 9.00 | Nc1cc(OCc2ccc(-n3ncc4ccccc43)cc2OC(F)(F)F)c2nn[nH]c2n1 [Example 258, 7-((4-(1H-indazol-1-yl)-2-(trifluoromethoxy)benzyl)oxy)-3H-[1,2,3]triazolo[4,5-b]pyridin-5-amine]
25 | 6.00 to 7.00 | CN1CCN(c2ncc(-c3ccc(F)c(COc4cc(N)nc5[nH]nnc45)c3Cl)cn2)CC1 [Example 348, 7-((2-chloro-6-fluoro-3-(2-(4-methylpiperazin-1-yl)pyrimidin-5-yl)benzyl)oxy)-3H-[1,2,3]triazolo[4,5-b] pyridin-5-amine]
26 | 7.00 to 9.00 | CN(C)c1ncc(-c2ccc(COc3cc(N)nc4[nH]nnc34)c(C#N)c2)cn1 [Example 317, 2-(((5-amino-3H-[1,2,3]triazolo[4,5-b]pyridin-7-yl)oxy)methyl)-5-(2-(dimethylamino)pyrimidin-5-yl)benzonitrile]
27 | 7.00 to 9.00 | Nc1cc(OCc2ccc(Br)cc2OC(F)(F)F)c2nn[nH]c2n1 [Example 240, 7-((4-Bromo-2-(trifluoromethoxy)benzyl)oxy)-3H-[1,2,3]triazolo[4,5-b]pyridin-5-amine]
28 | 7.00 to 9.00 | Nc1cc(OCc2c(F)ccc(Br)c2Cl)c2nn[nH]c2n1 [Example 235, 7-((3-Bromo-2-chloro-6-fluorobenzyl)oxy)-3H-[1,2,3]triazolo[4,5-b]pyridin-5-amine]
29 | 6.00 to 7.00 | Nc1cc(OCc2c(F)cc(-c3ccc(OCc4ccccc4)nc3)cc2F)c2nn[nH]c2n1 [Example 339, 7-((4-(6-(benzyloxy)pyridin-3-yl)-2,6-difluorobenzyl)oxy)-3H-[1,2,3]triazolo[4,5-b] pyridin-5-amine]
30 | 7.00 to 9.00 | CS(=O)(=O)c1cncc(-c2ccc(COc3cc(N)nc4[nH]nnc34)c(C#N)c2)c1 [Example 322, 2-(((5-amino-3H-[1,2,3]triazolo[4,5-b]pyridin-7-yl)oxy)methyl)-5-(5-(methylsulfonyl)pyridin-3-yl)benzonitrile]
31 | 7.00 to 9.00 | Nc1cc(OCc2cc([N+](=O)[O-])ccc2Cl)c2nn[nH]c2n1 [Example 249, 7-((2-chloro-5-nitrobenzyl)oxy)-3H-[1,2,3]triazolo[4,5-b]pyridin-5-amine]
